Columns and labels:
[1] = Inhibition of recombinant full length NS3/4A D168V mutant protease in Hepatitis C virus subtype 1b replicon infected in human HuH7 cells preincubated for 3 days followed by substrate addition and measured after 2 hrs by renilla luciferase reporter gene assay; format: cell-based; conditions: Huh-7
[2] = Oral bioavailability in rat at 5 mg/kg; format: ADME, organism-based; conditions: in vivo
[3] = Half-life in dog at 3 mg/kg, po or 1 mg/kg, iv; format: ADME, organism-based, Canis lupus familiaris; conditions: in vivo
[4] = Clearance in cynomolgus monkey at 3 mg/kg, po or 1 mg/kg, iv; format: ADME, organism-based, Macaca fascicularis; conditions: in vivo
[5] = Clearance in rat at 5 mg/kg, po or 1 mg/kg, iv; format: ADME, organism-based; conditions: in vivo
[6] = Drug concentration in cynomolgus monkey plasma at 3 mg/kg, po measured upto 24 hrs; format: ADME, organism-based, Macaca fascicularis; conditions: read-out: Ct
[7] = AUC (0 to 24 hrs) in rat at 5 mg/kg, po; format: ADME, organism-based; parameters: time < 24 hr, route oral, dose 5 mg/kg; conditions: in vivo
[8] = Oral bioavailability in cynomolgus monkey at 3 mg/kg; format: ADME, organism-based, Macaca fascicularis; conditions: in vivo
[9] = Toxicity in rat assessed as reduction in blood pressure at 30 to 100 mg/kg; format: organism-based; conditions: in vivo, dose 30-100 mg/kg
[10] = Clearance in dog at 3 mg/kg, po or 1 mg/kg, iv; format: ADME, organism-based, Canis lupus familiaris; conditions: in vivo
[11] = Inhibition of recombinant full length NS3/4A protease in Hepatitis C virus subtype 3a infected in human HuH7 cells using Ac-Asp-Glu-Asp (EDANS)-Glu-Glu-Abu-(COO) Ala-Ser-Lys (DABCYL)-NH2 as substrate by FRET assay; conditions: Huh-7
[12] = Drug concentration in rat plasma at 5 mg/kg, po measured upto 24 hrs; format: ADME, organism-based; conditions: read-out: Ct
[13] = Inhibition of recombinant full length NS3/4A protease in Hepatitis C virus subtype 1b replicon infected in human HuH7 cells preincubated for 3 days followed by substrate addition and measured after 2 hrs by renilla luciferase reporter gene assay; format: cell-based; conditions: Huh-7
[14] = AUC in dog at 3 mg/kg, po or 1 mg/kg, iv; format: ADME, organism-based, Canis lupus familiaris; parameters: dose 3 mg/kg; conditions: in vivo
[15] = Toxicity in rat assessed as increase in heart rate at 30 to 100 mg/kg; format: organism-based; conditions: in vivo, dose 30-100 mg/kg
[16] = Inhibition of recombinant full length NS3/4A protease in Hepatitis C virus subtype 3a replicon infected in human HuH7 cells preincubated for 3 days followed by substrate addition and measured after 2 hrs by renilla luciferase reporter gene assay; format: cell-based; conditions: Huh-7
[17] = Inhibition of recombinant full length NS3/4A protease in Hepatitis C virus subtype 2a replicon infected in human HuH7 cells preincubated for 3 days followed by substrate addition and measured after 2 hrs by renilla luciferase reporter gene assay; format: cell-based; conditions: Huh-7
[18] = Drug concentration in dog plasma at 3 mg/kg, po measured upto 24 hrs; format: ADME, organism-based, Canis lupus familiaris; conditions: read-out: Ct
[19] = Ratio of drug concentration in liver to plasma in rat at 5 mg/kg, po measured upto 24 hrs; format: ADME, organism-based; conditions: liver and plasma
[20] = Inhibition of recombinant full length NS3/4A R155K mutant protease in Hepatitis C virus subtype 1a replicon infected in human HuH7 cells preincubated for 3 days followed by substrate addition and measured after 2 hrs by renilla luciferase reporter gene assay; format: cell-based; conditions: Huh-7
[21] = Oral bioavailability in dog at 3 mg/kg; format: ADME, organism-based, Canis lupus familiaris; conditions: in vivo
[22] = Cmax in rat at 5 mg/kg, po; format: ADME, organism-based; parameters: route oral, dose 5 mg/kg; conditions: in vivo
[23] = Inhibition of recombinant full length NS3/4A protease in Hepatitis C virus subtype 1a replicon infected in human HuH7 cells preincubated for 3 days followed by substrate addition and measured after 2 hrs by renilla luciferase reporter gene assay; format: cell-based; conditions: Huh-7
[24] = Half life in rat at 1 mg/kg, iv; format: ADME, organism-based; conditions: in vivo
[25] = Toxicity in rat assessed as histopathological changes in liver at 100 mg/kg; format: organism-based; conditions: in vivo
[26] = Clearance in rat at 1 mg/kg, iv; format: ADME, organism-based; conditions: in vivo
[27] = AUC in cynomolgus monkey at 3 mg/kg, po or 1 mg/kg, iv; format: ADME, organism-based, Macaca fascicularis; parameters: dose 3 mg/kg; conditions: in vivo
[28] = Drug concentration in rat liver at 5 mg/kg, po measured upto 24 hrs; format: ADME, organism-based; conditions: read-out: Ct
[29] = Metabolic stability in human liver microsomes assessed as half-life incubated for 5 to 45 mins in presence of NADPH by LC-MS analysis; format: ADME, Microsome; conditions: time 5-45 min
[30] = Half-life in rat at 5 mg/kg, po or 1 mg/kg, iv; format: ADME, organism-based; conditions: in vivo
[31] = Half-life in cynomolgus monkey at 3 mg/kg, po or 1 mg/kg, iv; format: ADME, organism-based, Macaca fascicularis; conditions: in vivo
[32] = AUC in rat at 5 mg/kg, po or 1 mg/kg, iv; format: ADME, organism-based; parameters: dose 5 mg/kg; conditions: in vivo
[33] = Oral bioavailability in rat at 15 mg/kg; format: ADME, organism-based; conditions: in vivo
[34] = AUC (0 to 24 hrs) in rat at 15 mg/kg, po; format: ADME, organism-based; parameters: time < 24 hr, route oral, dose 15 mg/kg; conditions: in vivo
[35] = Cmax in rat at 15 mg/kg, po; format: ADME, organism-based; parameters: route oral, dose 15 mg/kg; conditions: in vivo
[36] = Clearance in rat at 5 mg/kg, iv; format: ADME, organism-based; conditions: in vivo
[37] = Half life in rat at 5 mg/kg, iv; format: ADME, organism-based; conditions: in vivo
[38] = Volume of distribution in rat at 15 mg/kg, po or 5 mg/kg, iv; format: ADME, organism-based; conditions: in vivo
[39] = Ratio of drug concentration in liver to plasma in rat at 15 mg/kg, po measured upto 24 hrs; format: ADME, organism-based; conditions: liver and plasma
[40] = Metabolic stability in rat liver microsomes assessed as parent compound remaining after 10 mins in presence of NADPH by LC-MS analysis; format: ADME, Microsome; conditions: read-out: Stabilty
[41] = Drug concentration in rat liver at 15 mg/kg, po measured upto 24 hrs; format: ADME, organism-based; conditions: read-out: Ct
[42] = Drug concentration in rat plasma at 15 mg/kg, po measured upto 24 hrs; format: ADME, organism-based; conditions: read-out: Ct
[43] = biological target: T1, Cytochrome P450 3A4 (Homo sapiens, UniProt P08684); test: Inhibition of human CYP3A4 in human pooled liver microsomes at 0.002 to 40 uM in presence of midazolam as substrate preincubated in presence of NADPH followed by addition of substrate by LC-MS/MS analysis; format: ADME; conditions: TDE = time-dependent effect, dose 0.002-40 µM, time <=30 min
[44] = biological target: T1, Cytochrome P450 3A4; test: Inhibition of human CYP3A4 in human pooled liver microsomes at 0.002 to 40 uM in presence of testosterone as substrate preincubated in presence of NADPH followed by addition of substrate by LC-MS/MS analysis; format: ADME; conditions: TDE = time-dependent effect, dose 0.002-40 µM, time <=30 min

T1 sequence (P08684 whole entry): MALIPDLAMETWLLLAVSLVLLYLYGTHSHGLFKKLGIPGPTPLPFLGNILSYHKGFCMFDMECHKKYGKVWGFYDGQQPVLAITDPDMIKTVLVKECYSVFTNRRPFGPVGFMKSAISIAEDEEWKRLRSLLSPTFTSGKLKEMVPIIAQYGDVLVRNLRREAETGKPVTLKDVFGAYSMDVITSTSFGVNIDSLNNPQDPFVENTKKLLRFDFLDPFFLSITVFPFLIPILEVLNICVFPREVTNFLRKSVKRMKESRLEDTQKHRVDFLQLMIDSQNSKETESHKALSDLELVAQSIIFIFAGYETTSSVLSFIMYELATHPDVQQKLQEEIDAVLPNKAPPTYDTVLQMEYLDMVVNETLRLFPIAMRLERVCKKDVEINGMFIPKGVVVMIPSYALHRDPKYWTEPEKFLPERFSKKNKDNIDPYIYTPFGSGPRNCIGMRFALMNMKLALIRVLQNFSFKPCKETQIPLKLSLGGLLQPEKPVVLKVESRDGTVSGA

Row | Structure (SMILES) | EC50 [1] | bioavailability [2] | AUC(0-t) at 24 h [7] | IC50 [11] | concentration at 24 h [12] | EC50 [13] | EC50 [16] | EC50 [17] | Kp at 24 h [19] | EC50 [20] | Cmax [22] | EC50 [23] | half-life [24] | clearance [26] | concentration at 24 h [28] | half-life [29] | further results
1 | CC[C@@H]1C[C@H](C)CC/C=C\[C@@H]2C[C@@]2(C(=O)NS(=O)(=O)C2(C)CC2)NC(=O)[C@@H]2C[C@@H](Oc3ncc(OC)c4ccc(F)cc34)CN2C(=O)[C@H]1NC(=O)OC(C)(C)C(F)(F)F | 9 nM | 47% | 32.5 µM·h | 8.4 nM | 422 nM | 0.6 nM | 15 nM | 2 nM | 5 | 7.6 nM | 3610 nM | 2.3 nM | 7.9 h | 1.2 mL/min/kg | 2070 nM | 0.717 h | half-life [3]: 11.3 h; clearance [4]: 5.5 mL/min/kg; clearance [5]: 1.2 mL/min/kg; concentration at 24 h [6]: 13 nM; bioavailability [8]: 28%; Activity [9]: Toxic; clearance [10]: 0.6 mL/min/kg; AUC [14]: 71 µM·h; Activity [15]: Toxic; concentration at 24 h [18]: 709 nM; bioavailability [21]: 67%; Activity [25]: Non-Toxic; AUC [27]: 2.9 µM·h; half-life [30]: 7.9 h; half-life [31]: 2.8 h; AUC [32]: 37 µM·h
2 | COc1cnc(O[C@@H]2C[C@H]3C(=O)N[C@]4(C(=O)NS(=O)(=O)C5CC5)C[C@H]4/C=C\CC[C@@H](C)C[C@@H](C)[C@H](NC(=O)OC(C)(C)C(F)(F)F)C(=O)N3C2)c2ccccc12 | 5.5 nM |  |  | 0.9 nM |  | 0.5 nM | 2 nM | 0.8 nM |  | 2.2 nM |  | 0.5 nM |  |  |  | 0.198 h | bioavailability [33]: 15%; AUC(0-t) at 24 h [34]: 11.7 µM·h; Cmax [35]: 1780 nM; clearance [36]: 4.2 mL/min/kg; half-life [37]: 2.7 h; Vd [38]: 0.58 L/kg; Kp at 24 h [39]: 34; remaining at 10 min [40]: 95%; concentration at 24 h [41]: 480 nM; concentration at 24 h [42]: 14 nM
3 | CC[C@@H]1C[C@H](C)CC/C=C\[C@@H]2C[C@@]2(C(=O)NS(=O)(=O)C2(C)CC2)NC(=O)[C@@H]2C[C@@H](Oc3nccc4cc(O)c(F)cc34)CN2C(=O)[C@H]1NC(=O)OC(C)(C)C(F)(F)F | 9.5 nM |  |  |  |  | 1.3 nM | 48 nM | 1.9 nM |  | 3.9 nM |  |  |  |  |  | 0.617 h | inhibition (INH) [43]: Tde; inhibition (INH) [44]: Tde
4 | CC[C@@H]1C[C@H](C)CC/C=C\[C@@H]2C[C@@]2(C(=O)NS(=O)(=O)C2CC2)NC(=O)[C@@H]2C[C@@H](Oc3ncc(OC)c4ccccc34)CN2C(=O)[C@H]1NC(=O)OC(C)(C)C(F)(F)F | 17 nM | 61% | 18.8 µM·h | 1.2 nM | 72 nM | 0.5 nM | 8 nM | 1.5 nM | 33 | 8.3 nM | 2950 nM | 1 nM | 4.8 h | 5.73 mL/min/kg | 2360 nM | 0.628 h | 
5 | CC[C@@H]1C[C@H](C)CC/C=C\[C@@H]2C[C@@]2(C(=O)NS(=O)(=O)C2(C)CC2)NC(=O)[C@@H]2C[C@@H](Oc3ncc(OC)c4ccccc34)CN2C(=O)[C@H]1NC(=O)OC(C)(C)C(F)(F)F | 5.4 nM | 42% | 22.5 µM·h | 1.9 nM | 229 nM | 0.4 nM | 7.4 nM | 1.1 nM | 12 | 5.4 nM | 3030 nM | 0.8 nM | 7.3 h | 1.7 mL/min/kg | 2670 nM | 0.383 h | 
6 | COc1cnc(O[C@@H]2C[C@H]3C(=O)N[C@]4(C(=O)NS(=O)(=O)C5(C)CC5)C[C@H]4/C=C\CC[C@@H](C)C[C@@H](C)[C@H](NC(=O)OC(C)(C)C(F)(F)F)C(=O)N3C2)c2ccccc12 | 4.7 nM | 60% | 34.2 µM·h | 0.9 nM | 226 nM | 0.3 nM | 5 nM | 0.6 nM | 25 | 1.6 nM | 5290 nM | 0.8 nM | 5.7 h | 1.7 mL/min/kg | 5740 nM | 0.25 h | 
7 | C=C[C@@H]1C[C@]1(NC(=O)[C@@H]1C[C@@H](Oc2ncc(OC)c3ccc(Cl)cc23)CN1C(=O)[C@@H](NC(=O)OC(C)(C)C)C(C)(C)C)C(=O)NS(=O)(=O)C1CC1 | 187 nM | 14% |  | 395 nM | 33 nM | 1.2 nM | 407 nM | 217 nM |  | 150 nM |  | 4 nM |  |  | 15000 nM |  | half-life [3]: 1 h; clearance [5]: 38 mL/min/kg; clearance [10]: 18.7 mL/min/kg; AUC [14]: 2.2 µM·h; concentration at 24 h [18]: < 10 nM; AUC [27]: 0.65 µM·h; half-life [31]: 1.3 h; AUC [32]: 1.2 µM·h

Reference: ChEMBL document CHEMBL4765464, “Discovery of BMS-986144, a Third-Generation, Pan-Genotype NS3/4A Protease Inhibitor for the Treatment of Hepatitis C Virus Infection” (J Med Chem, 2020)
